# From patent US20240417397A1 (priority 2021, published 2024)
# Tested on: Rice blast fungi (Pyricularia oryzae, MAFF101511)
# Assay: microbe, parasite or virus in culture
# Type: cell-based
# Conditions: 72 h, read-out: Inhibition rate (%) of elongation length of fungal filaments
row,Structure (SMILES),inhibition at 500 ppm
1,"COc1n[nH]c(N2CCC(OC)CC2)c1C(F)(F)F [Example 9, 3-methoxy-5-(4-methoxypiperidin-1-yl)-4-trifluoromethyl-1H-pyrazole]",88%
2,"COc1n[nH]c(F)c1C(F)(F)F [Example 2, 3-fluoro-5-methoxy-4-trifluoromethylpyrazole]",95%
